Measured values: patent US20150125550A1, “APPLICATION OF 2,9-DI-SEC-BUTYL-1,10-PHENANTHROLINE AS A GLIOBLASTOMA TUMOR CHEMOTHERAPY” (priority 2013, published 2015)

Test system: A549 lung cancer cells
Assay: SRB colorimetric assay, A549 lung cancer cells, 72 hours
Format: cell-based, human
Conditions: Homo sapiens; A549, 72 hours, average ± SD of three curves
Experimental: A549 cells were cultured in RPMI media supplemented with 10% Fetal Bovine Serum and 1% nonessential amino acids. Sub-culturing was carried out every 3-4 days and was completed by removing the supernatant media and treating the adherent cells with 1.0 mL of a 0.25% (w/v) Trypsin/0.5 mM EDTA solution. The cells were then treated for approximately 3 minutes in a 37° C. incubator under a 5% CO2 atmosphere. Trypsinization was stopped by the addition of 7.0 mL of cell culture media, the suspended cells were collected by centrifugation, and the resulting cell pellet was re-suspended in fresh cell culture media. The cells were then diluted 1:4 by volume and incubated in a 37° C. incubator with 5% CO2. Cells were grown to 80-90% confluency prior to being used in the SRB colorimetric assays.
To test the effects of compounds 1-18 on the growth of A549 lung cancer cells, SRB cytotoxicity assays were done as described by Skehan et al. Cells were maintained in RPMI media as described above, collected, and diluted so that cells could be seeded in 96-well plates at a density of 4,000 cells/well. The 96-well plate was incubated overnight at 37° C. under a 5% CO2 atmosphere. Subsequently, sterifiltered DMSO stock solutions of the drugs were added to the wells in various concentrations (0-25 μM) and the 96-well plate was incubated at 37° C. under a 5% CO2 for an additional 72 hours. The supernatant cell culture medium was then removed and the cells were fixed for 1 hour with 10% cold trichloroacetic acid (100 μL per well). The trichloroacetic acid was discarded and the plates were washed 5 times with de-ionized water and air dried. After being stained with 0.4% SRB ([…]) and incubated at room temperature for 10 minutes, the cells were washed 5 times with 1% acetic acid and air dried. The bound SRB was dissolved in 10 mM unbuffered Tris, pH 10.5 ([…]) for 10 minutes at room temperature, and the absorbance at 492 nm was measured using a microplate reader. The percent cell growth was then calculated based upon the absorbance values relative to control samples not containing any drug. Each drug concentration was done in triplicate to yield a percent growth vs. drug concentration curve, and these growth curves were subsequently repeated two additional times. The growth curves from the three experiments were then plotted in GraphPad Prism and best-fit curves were used to generate the IC50 values for each curve.

CCC(C)c1ccc2ccc3ccc(C(C)CC)nc3c2n1 (stereo not shown) [Compound 1, 2,9-di-sec-butyl-1,10-phenanthroline]
IC50: 0.42 ± 0.17 µM
